≈ marks a conversion by molar mass, not a printed value. Read-outs that look alike come from different tables or passages of the source. Where a SMILES comes first, the peptide text is derived from it.
Assays:
[1] = system: Klebsiella pneumoniae NCTC 13368; assay type: cell-based; settings: in µg/mL; for MIC on initial panels: medium and unit not given
[2] = system: Pseudomonas aeruginosa PA01; test: Antibacterial activity assay (broth microdilution MIC); assay type: cell-based; settings: for MIC, Stability in serum (MH) / MIC on initial panels: in µg/mL; for MIC on initial panels: medium and unit not given
[3] = system: VS Enterococcus faecalis NCTC 775; test: as above; assay type: cell-based; settings: for MIC, Peptide concentration: Mueller-Hinton broth; for MIC on initial panels: VSE775, medium and unit not given, in µg/mL
[4] = system: Pseudomonas aeruginosa NCTC 13437; test: as above; assay type: cell-based; settings: PA13437, in µg/mL; for MIC on initial panels: medium and unit not given
[5] = system: Escherichia coli NCTC 12923; assay type: cell-based; settings: EC12923; for MIC on initial panels: medium and unit not given; for MIC on initial panels / MIC: in µg/mL
[6] = system: VR Enterococcus faecium NCTC 12204; test: Antibacterial activity assay (broth microdilution MIC); assay type: cell-based; settings: VRE12204, in µg/mL; for MIC on initial panels: medium and unit not given; for MIC: untitled table, medium/unit not given, values match RPMI of Table 2
[7] = system: EMR Staphylococcus aureus-16 (EMRSA-16); assay type: cell-based; settings: EMRSA16; for MIC on initial panels: medium and unit not given, in µg/mL; for MIC: untitled table, medium/unit inferred, values match RPMI of Table 2
[8] = system: Acinetobacter baumannii AYE; assay type: cell-based; settings: AYE; for MIC on initial panels: medium and unit not given; for MIC on initial panels / MIC: in µg/mL
[9] = system: Klebsiella pneumoniae M6; assay type: cell-based; settings: for MIC on initial panels: medium and unit not given
[10] = system: EMR Staphylococcus aureus-15 (EMRSA-15); assay type: cell-based; settings: for MIC on initial panels / MIC: EMRSA15; for MIC on initial panels: medium and unit inferred; for MIC: untitled table, medium/unit inferred, values match RPMI of Table 2
[11] = system: HeLa; test: Cytotoxicity assay (XTT); assay type: cell-based, human; design: Toxicity HeLa: unit not given beside the values; settings: for Toxicity HeLa: unit not given; for Toxicity HeLa (EC50), Peptide concentration: value printed in parentheses
Experimental: Cytotoxicity assay. HeLa and HEK293 cell lines were purchased from ECACC and cultured in Eagle's Minimum Essential Media (EMEM) containing glutamine, supplemented with 10% FBS and 1× non-essential amino acids (NEAA) at 37° C., 10% CO2. Cytotoxicity was measured by incubating starter cultures of cells for 24 hours in a 96 well plate, gently removing the supernatant and replacing it with dilutions of peptides and controls, incubating for a further 24 hours and then staining of the cells with the second generation tetrazolium dye, XTT. […]

[12] = system: Acinetobacter baumannii ATCC 17978; assay type: cell-based; settings: in µg/mL; for MIC on initial panels / MIC: AB17978; for MIC on initial panels: medium and unit not given; for MIC, Stability in serum (MH): Ab17978
[13] = KP13368, Serum (10% fetal bovine serum)
[14] = KP13368, untitled table, medium/unit not given, values match RPMI of Table 2
[15] = untitled table, medium/unit inferred, values match RPMI of Table 2
[16] = untitled table, medium/unit not given, values match RPMI of Table 2
[17] = untitled table, medium/unit not given, values match RPMI of Table 2, in µg/mL

Structure (SMILES): CC(C)C[C@@H](NC(=O)[C@@H](Cc1ccc(O)cc1)NC(=O)[C@@H](Cc1c[nH]cn1)NC(=O)[C@H](NC(=O)[C@@H](CC(C)C)NC(=O)[C@@H](C)NC(=O)[C@@H](C)NC(=O)[C@@H](CCCNC(=N)N)NC(=O)CNC(=O)[C@H](NC(=O)[C@@H](Cc1c[nH]cn1)NC(=O)[C@@H](CCCNC(=N)N)NC(=O)CNC(=O)[C@H](NC(=O)[C@@H](Cc1c[nH]cn1)NC(=O)[C@@H](C)NC(=O)[C@@H](C)NC(=O)[C@@H](CCCNC(=N)N)NC(=O)[C@@H](CCCNC(=N)N)NC(=O)[C@@H](Cc1ccccc1)NC(=O)[C@@H](Cc1ccccc1)NC(=O)[C@@H](CO)NC(=O)CNC(=O)[C@@H](Cc1c[nH]c2ccccc12)NC(=O)CN)C(C)C)C(C)C)[C@H](C)O)C(N)=O [D-pleurocidin-KR] (HELM PEPTIDE1{G.[dW].G.[dS].[dF].[dF].[dR].[dR].[dA].[dA].[dH].[dV].G.[dR].[dH].[dV].G.[dR].[dA].[dA].[dL].[dT].[dH].[dY].[dL].[am]}$$$$V2.0; N-terminus assumed)
- MIC, Stability in serum (MH) ([1]; KP13368, No serum): 2
- MIC, Stability in serum (MH) [1, 13]: 1
- MIC on initial panels ([1]; KP13368): 2
- MIC [1, 14]: 4
- MIC, Stability in serum (MH) ([2]; No serum): 4
- MIC, Stability in serum (MH) ([2]; Serum (10% fetal bovine serum)): 4
- MIC on initial panels [2]: 4
- MIC [2, 15]: 16 µg/mL (≈ 5.67 µM)
- MIC, Peptide concentration [3]: 8 (NG) μg/ml
- MIC on initial panels [3]: 8
- MIC, Stability in serum (MH) ([4]; No serum): 4
- MIC, Stability in serum (MH) ([4]; Serum (10% fetal bovine serum)): 8
- MIC on initial panels [4]: 4
- MIC [4, 16]: 16
- MIC, Stability in serum (MH) ([5]; No serum): 1 µg/mL (≈ 0.354 µM)
- MIC, Stability in serum (MH) ([5]; Serum (10% fetal bovine serum)): 0.25 µg/mL (≈ 0.0886 µM)
- MIC on initial panels [5]: 1
- MIC [5, 16]: 2
- MIC on initial panels [6]: 2
- MIC [6]: 2
- MIC on initial panels [7]: 4
- MIC [7]: 1 µg/mL (≈ 0.354 µM)
- MIC, Stability in serum (MH) ([8]; No serum): 2 µg/mL (≈ 0.709 µM)
- MIC, Stability in serum (MH) ([8]; Serum (10% fetal bovine serum)): 0.5 µg/mL (≈ 0.177 µM)
- MIC on initial panels [8]: 2
- MIC [8, 16]: 2
- MIC, Stability in serum (MH) ([9]; No serum): 2 µg/mL (≈ 0.709 µM)
- MIC, Stability in serum (MH) ([9]; Serum (10% fetal bovine serum)): 0.5 µg/mL (≈ 0.177 µM)
- MIC on initial panels ([9]; in µg/mL): 2
- MIC [9, 17]: 4
- MIC on initial panels [10]: 2 µg/mL (≈ 0.709 µM)
- MIC [10]: 0.5 µg/mL (≈ 0.177 µM)
- MIC, Peptide concentration ([10]; Mueller-Hinton broth): 2 µg/mL (≈ 0.709 µM)
- MIC, Peptide concentration ([10]; Mueller-Hinton broth, listed as D-PLEUROCIDIN-KR): 4 µg/mL (≈ 1.42 µM)
- Toxicity HeLa [11]: 25.3 ± 2.2
- Toxicity HeLa (EC50), Peptide concentration [11]: (25.3 ± 2.2) μg/ml
- MIC on initial panels [12]: 2
- MIC [12, 16]: 4
- MIC, Stability in serum (MH) ([12]; No serum): 2
- MIC, Stability in serum (MH) ([12]; Serum (10% fetal bovine serum)): 0.5

Structure (SMILES): CC(C)C[C@@H](NC(=O)[C@@H](Cc1ccc(O)cc1)NC(=O)[C@@H](Cc1c[nH]cn1)NC(=O)[C@H](NC(=O)[C@@H](CC(C)C)NC(=O)[C@@H](C)NC(=O)[C@@H](C)NC(=O)[C@@H](CCCCN)NC(=O)CNC(=O)[C@H](NC(=O)[C@@H](Cc1c[nH]cn1)NC(=O)[C@@H](CCCCN)NC(=O)CNC(=O)[C@H](NC(=O)[C@@H](Cc1c[nH]cn1)NC(=O)[C@@H](C)NC(=O)[C@@H](C)NC(=O)[C@@H](CCCCN)NC(=O)[C@@H](CCCCN)NC(=O)[C@@H](Cc1ccccc1)NC(=O)[C@@H](Cc1ccccc1)NC(=O)[C@@H](CO)NC(=O)CNC(=O)[C@@H](Cc1c[nH]c2ccccc12)NC(=O)CN)C(C)C)C(C)C)[C@H](C)O)C(N)=O [D-pleurocidin] (HELM PEPTIDE1{G.[dW].G.[dS].[dF].[dF].[dK].[dK].[dA].[dA].[dH].[dV].G.[dK].[dH].[dV].G.[dK].[dA].[dA].[dL].[dT].[dH].[dY].[dL].[am]}$$$$V2.0; N-terminus assumed)
- MIC, Stability in serum (MH) ([1]; KP13368, No serum): 4
- MIC, Stability in serum (MH) [1, 13]: 4
- MIC on initial panels ([1]; KP13368): 4
- MIC [1, 14]: 8-16
- MIC ([1]; Klebsiella pneumoniae KP13368, (MH)): 4
- MIC ([1]; Klebsiella pneumoniae KP13368, (RPMI)): 8-16
- MIC ([2]; (MH)): 2 µg/mL (≈ 0.738 µM)
- MIC ([2]; (RPMI)): 16 µg/mL (≈ 5.9 µM)
- MIC, Stability in serum (MH) ([2]; No serum): 2
- MIC, Stability in serum (MH) ([2]; Serum (10% fetal bovine serum)): 4
- MIC on initial panels [2]: 2
- MIC [2, 15]: 16 µg/mL (≈ 5.9 µM)
- MIC, Peptide concentration [3]: 32 (NG) μg/ml
- MIC on initial panels [3]: 32
- MIC ([4]; (MH)): 8
- MIC ([4]; (RPMI)): 16-32
- MIC, Stability in serum (MH) ([4]; No serum): 8
- MIC, Stability in serum (MH) ([4]; Serum (10% fetal bovine serum)): 16
- MIC on initial panels [4]: 8
- MIC [4, 16]: 16-32
- MIC ([5]; (MH)): 1
- MIC ([5]; (RPMI)): 2-4
- MIC, Stability in serum (MH) ([5]; No serum): 1 µg/mL (≈ 0.369 µM)
- MIC, Stability in serum (MH) ([5]; Serum (10% fetal bovine serum)): 0.5 µg/mL (≈ 0.184 µM)
- MIC on initial panels [5]: 1
- MIC [5, 16]: 2-4
- MIC on initial panels [6]: 16
- MIC [6]: 4
- MIC on initial panels [7]: 16
- MIC [7]: 1 µg/mL (≈ 0.369 µM)
- MIC ([8]; (MH)): 1
- MIC ([8]; (RPMI)): 2
- MIC, Stability in serum (MH) ([8]; No serum): 2 µg/mL (≈ 0.738 µM)
- MIC, Stability in serum (MH) ([8]; Serum (10% fetal bovine serum)): 2 µg/mL (≈ 0.738 µM)
- MIC on initial panels [8]: 1
- MIC [8, 16]: 2
- MIC ([9]; (MH), in µg/mL): 4
- MIC ([9]; (RPMI), in µg/mL): 4-8
- MIC, Stability in serum (MH) ([9]; No serum): 4 µg/mL (≈ 1.48 µM)
- MIC, Stability in serum (MH) ([9]; Serum (10% fetal bovine serum)): 4 µg/mL (≈ 1.48 µM)
- MIC on initial panels ([9]; in µg/mL): 4
- MIC [9, 17]: 4-8
- MIC, Peptide concentration ([10]; EMR -15 (EMRSA-15)): 1 µg/mL (≈ 0.369 µM)
- MIC on initial panels [10]: 16 µg/mL (≈ 5.9 µM)
- MIC [10]: 1 µg/mL (≈ 0.369 µM)
- MIC, Peptide concentration ([10]; Mueller-Hinton broth): 16 µg/mL (≈ 5.9 µM)
- Toxicity HeLa [11]: 47.1 ± 2.1
- Toxicity HeLa (EC50), Peptide concentration [11]: (47.1 ± 2.1) μg/ml
- MIC ([12]; (MH)): 1
- MIC ([12]; (RPMI)): 8
- MIC on initial panels [12]: 1
- MIC [12, 16]: 8
- MIC, Stability in serum (MH) ([12]; No serum): 1
- MIC, Stability in serum (MH) ([12]; Serum (10% fetal bovine serum)): 0.5

Reference: patent publication US20230047825A1, “ANTIMICROBIAL PEPTIDES” (priority 2019, published 2023)
